Changes are numbered by the printed parent chain.
Assays:
AtGPRAT2 [1] = biological target: T1, AtGPRAT2 (Arabidopsis thaliana, UniProt Q9STG9); test: coupled glutamate dehydrogenase assay, NADH at […] nm, mixed inhibition model; format: biochemical
T1 construct: gene ASE2; residues 75-561 without predicted chloroplast transit peptide, C-terminal His tag (pET22b), E. coli BL21; propeptide autocatalytically removed, first visible residue Cys87 (87-546 visible); 4Fe-4S cluster; homo-tetramer in crystal
T1 sequence (Q9STG9 87-561): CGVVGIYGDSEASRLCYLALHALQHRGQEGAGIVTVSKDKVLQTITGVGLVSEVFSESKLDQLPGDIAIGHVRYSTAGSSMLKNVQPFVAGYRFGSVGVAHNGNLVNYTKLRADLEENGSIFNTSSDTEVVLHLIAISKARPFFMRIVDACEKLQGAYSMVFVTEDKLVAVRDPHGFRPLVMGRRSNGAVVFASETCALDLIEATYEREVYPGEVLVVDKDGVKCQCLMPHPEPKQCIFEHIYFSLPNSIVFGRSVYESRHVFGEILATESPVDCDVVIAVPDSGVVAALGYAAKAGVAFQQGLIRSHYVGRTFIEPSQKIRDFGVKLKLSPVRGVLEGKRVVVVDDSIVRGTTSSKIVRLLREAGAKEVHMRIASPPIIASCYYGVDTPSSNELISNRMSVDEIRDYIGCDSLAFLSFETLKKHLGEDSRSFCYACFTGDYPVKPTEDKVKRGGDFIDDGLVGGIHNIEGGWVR

AtGPRAT2 [2] = biological target: T1, AtGPRAT2; test: isothermal titration calorimetry, single site model; format: binding
Source text: isothermal titration calorimetry, single site model on AtGPRAT2 | isothermal titration calorimetry (ITC) assay with wildtype, R264K and Y329A mutants of AtGPRAT2

AtGPRAT2 [3] = biological target: T2, AtGPRAT2 (Arabidopsis thaliana, UniProt Q9STG9, R264K); test: as above; format: binding; conditions: 20 mM HEPES pH 7.5, 200 mM NaCl, 25 °C; stated gain
T2 construct: gene ASE2; residues 75-561 without predicted chloroplast transit peptide, C-terminal His tag (pET22b), E. coli BL21; propeptide autocatalytically removed, first visible residue Cys87 (87-546 visible); 4Fe-4S cluster; homo-tetramer in crystal
T2 sequence (Q9STG9 87-561 R264K): T1 sequence (Q9STG9 87-561) with R178K

AtGPRAT2 [4] = biological target: T3, AtGPRAT2 (Arabidopsis thaliana, UniProt Q9STG9, Y329A); test: as above; format: binding
T3 construct: gene ASE2; residues 75-561 without predicted chloroplast transit peptide, C-terminal His tag (pET22b), E. coli BL21; propeptide autocatalytically removed, first visible residue Cys87 (87-546 visible); 4Fe-4S cluster; homo-tetramer in crystal
T3 sequence (Q9STG9 87-561 Y329A): T1 sequence (Q9STG9 87-561) with Y243A

purified protein = substrate: O=P(O)(O)OC[C@H]1O[C@H](OP(=O)(O)OP(=O)(O)O)[C@H](O)[C@@H]1O; test: purified protein; format: biochemical, Arabidopsis thaliana; conditions: 10 mM Gln, 37.5 mM NAD+, 110 mM potassium phosphate pH 8.0, no inhibitor
[5] = biological target: the molecule itself; test: crystal structure; sitting-drop vapor diffusion at 291 K; 0.1 M sodium citrate tribasic pH 5.6, 1.5 M ammonium phosphate monobasic, 0.1 M citric acid pH 3.4; space group P3121, two molecules in the asymmetric unit; tetramer assigned with the PISA server

CC(C)n1nc(CC(=O)O)nc1-c1ccc(Cl)cc1 [DAS734, [5-(4-chlorophenyl)-1-isopropyl-1H-[1,2,4]triazol-3-yl]-acetic acid]
Ki (AtGPRAT2 [1]): 5290 nM | Kd (AtGPRAT2 [2]): 165 ± 15.8 nM | binding abolished (AtGPRAT2 [3]): the R264K mutation abolished the binding of DAS734 to AtGPRAT2 | Kd (AtGPRAT2 [4]): 1750 ± 38.4 nM

B1: Arabidopsis thaliana chloroplastic glutamine phosphoribosylpyrophosphate amidotransferase 2, AtGPRAT2^75-561 (enzyme, UniProt Q9STG9 75-561, looked up)
chain: T1 sequence (Q9STG9 87-561)
notes: AtGPRAT2 (At4g34740), Arabidopsis thaliana, residues 75-561, without the predicted chloroplast transit peptide; Each protomer carries a 4Fe-4S cofactor; also called GPRATase
Km (purified protein): 350 µM | stoichiometry N [5]: 4

Reference: PMC7056826, “Crystal Structure of the Chloroplastic Glutamine Phosphoribosylpyrophosphate Amidotransferase GPRAT2 From Arabidopsis thaliana” (Frontiers in Plant Science, 2020)
